No end group written: not given here.
Target: T1, GPR103 Q184^4.64A (Homo sapiens, UniProt Q96P65, Q184A)
T1 construct: we used human full-length QRFPR-encoding plasmids; expressed in transfected cells; host or cells: HEK293 cells, pCAGGS vector
T1 sequence (Q96P65 1-431 Q184A): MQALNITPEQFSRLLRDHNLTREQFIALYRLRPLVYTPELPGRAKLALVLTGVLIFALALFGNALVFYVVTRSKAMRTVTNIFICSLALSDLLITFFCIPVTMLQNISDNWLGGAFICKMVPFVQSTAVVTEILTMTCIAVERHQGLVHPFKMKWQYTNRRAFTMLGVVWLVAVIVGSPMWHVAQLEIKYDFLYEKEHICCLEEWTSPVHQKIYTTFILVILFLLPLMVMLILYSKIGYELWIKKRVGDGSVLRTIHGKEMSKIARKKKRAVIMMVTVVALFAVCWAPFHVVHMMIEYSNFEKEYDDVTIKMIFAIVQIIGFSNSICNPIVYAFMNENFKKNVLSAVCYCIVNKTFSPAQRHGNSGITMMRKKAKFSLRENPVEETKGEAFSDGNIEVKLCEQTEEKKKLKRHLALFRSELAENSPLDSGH
Assay: TGFα shedding assay; Exp. level WT (1:5)
Format: cell-based
Description: For the TGFα shedding assay and the flow cytometry analysis, we used human full-length QRFPR-encoding plasmids. Specifically, GPR103 was N-terminally modified with an HA signal sequence followed by a FLAG epitope and then a flexible linker ([…]; the FLAG epitope is underlined) and inserted into the pCAGGS vector. Plasmid encoding GPR103 mutants were generated using Quickchange Site-Directed Mutagensis kit (Agilent).
The TGFα shedding assay was performed as described previously with minor modifications. Plasmid transfection was performed in a 6-well plate with a mixture of 500 ng (per well in a 6-well plate) AP-TGFα-encoding plasmid and 200 ng GPR103-encoding plasmid. After 1-day culture, the transfected cells were harvested by trypsinization, pelleted by centrifugation at 190 × g for 5 min, and washed once with 5 mM HEPES (pH 7.4)-containing Hank’s Balanced Salt Solution (HBSS). After centrifugation, the cells were resuspended in 8 mL of the HEPES-containing HBSS. The cell suspension was seeded in a 96-well culture plate (cell plate) at a volume of 90 μL (per well hereafter) and incubated in a 37 °C incubator with 5% CO2 for 30 min. […] After spinning the cell plates at 190 × g for 2 min, 80 μL of conditioned media was transferred to an empty 96-well plate (conditioned media (CM) plate). Then, 80 μL of AP reaction solution (10 mM p-nitrophenylphosphate (p-NPP), 120 mM Tris-HCl (pH 9.5), 40 mM NaCl, and 10 mM MgCl2) was dispensed into the cell plates and the CM plates. Absorbance at 405 nm of the plates was measured using a microplate reader (SpectraMax 340 PC384, Molecular Devices) before and after 1-h incubation at room temperature. Ligand-induced AP-TGFα release was calculated by subtracting spontaneous AP-TGFα release signal from ligand-induced AP-TGFα release signal. The AP-TGFα release signals were fitted to a four-parameter sigmoidal concentration–response curve, using the Prism 10 software (GraphPad Prism). For each replicate experiment, the pEC50 parameter (negative logarithmic values of EC50 values) of the individual GPR103 mutants were normalized to that of the wild-type GPR103 performed in parallel, and resulting ∆pEC50 values were used to denote ligand response activity of the mutants. […]
Exp. le vel: WT (1:5 0)Exp. le vel: WT (1:5 0)Exp. le vel: WT (1:5 0)Exp. le vel: WT (1:2 0)Exp. le vel: WT (1:2 0)Exp. le vel: WT (1:1 0) […]
L1 4N - t e r mA F2 5N - t e r mA I 2 6N - t e r mA Y 2 9N - t e r mA C 9 82 .5 7A T10 22 .6 1A Exp . l eve l: WT (1 :5)Exp . l evel : >WT (1 :1)Exp. le vel: WT (1:2 0)Exp. le vel: WT (1:2 0)Exp. le vel: WT (1:5 0)Exp . l eve l: WT (1 :1) […]
Exp. le vel: WT (1:1 0)Exp. le vel: WT (1:2 0) C 1 1 83 .2 5AExp. le vel: WT (1:5 0)Exp. le vel: WT (1:5 0)Exp. le vel: WT (1:2 0)Exp . l eve l: WT (1 :5) […]
Exp. le vel: WT (1:5 0)Exp. le vel: WT (1:1 0)Exp. le vel: WT (1:5 0) E203ECL2AExp . l evel : >WT (1 :1)Exp. le vel: WT (1:5 0)Exp. le vel: WT (1:5 0) […]
Exp . l eve l: WT (1 :1) F28Exp. le vel: WT (1:5 0) C 2 8 56 .4 7AExp. le vel: WT (1:2 0) WExp. le vel: WT (1:2 0) F28Exp. le vel: WT (1:5 0)Exp . l evel : >WT (1 :1) […]
Exp. le vel: WT (1:5 0)Exp. le vel: WT (1:5 0) C 3 2 77 .4 8AExp . l eve l: WT (1 :5)Exp . l evel : >WT (1 :1)Exp . l evel : >WT (1 :1) […]
Suppl eme nt ary Figure 1 | Mutational analysis of GPR103. […]
mutants. Data are presented as mean values ± SEM, normally n=3-5; dots), each performed in triplicate. b-d Cell-surface expression (b) and QRFP26-in-duced activation of GPR103 (c, d) were analyzed by the flow cytometry and the TGFα shedding assay, respectively. From the concentration–response curves (a), Emax (c) and ΔpEC50 (d) values relative to the wild type were calculated. Colors in the mutant bars indicate an expression level matching to that of titrated wild type. Statistical analyses were performed using the ordinary one-way ANOVA followed by Dunnett tests with the expression-matched […]

Emax (mean): 99.8%
EC50 (n = 3): 234 nM
Emax (n = 3): 103 ± 2.2%
Substance: TSGPLGNLAEELNGYSRKKGGFSFRF-NH2 [QRFP26]
